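Exposure lasted 48 hours, with cells grown in 96-well plates and compounds tested at five concentrations. The concentration for full growth arrest is given as TGI.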
Tests used:
Assay in all cases: inhibition of tumour cell growth, NCI panel, 48 h
[1] = tested on: RXF 393 renal
[2] = tested on: SK-OV-3 ovarian
[3] = tested on: PC-3 prostate
[4] = tested on: MALME-3M melanoma
[5] = tested on: COLO 205 colon
[6] = tested on: DU-145 prostate
[7] = tested on: SK-MEL-2 melanoma
[8] = tested on: BT-549 breast
[9] = tested on: HCT-116 colon
[10] = tested on: ACHN renal
[11] = tested on: HT29 colon
[12] = tested on: UACC-62 melanoma
[13] = tested on: OVCAR-8 ovarian
[14] = tested on: UACC-257 melanoma
[15] = tested on: SNB-19 CNS
[16] = tested on: HL-60(TB) leukemia
[17] = tested on: SK-MEL-5 melanoma
[18] = tested on: MDA-MB-435
[19] = tested on: MOLT-4 leukemia
[20] = tested on: HCC-2998 colon
[21] = tested on: NCI/ADR-RES ovarian
[22] = tested on: SW-620 colon
[23] = tested on: IGROV1 ovarian
[24] = tested on: LOX IMVI melanoma
[25] = tested on: SK-MEL-28 melanoma
[26] = tested on: NCI-H522 lung
[27] = tested on: U251 CNS
[28] = tested on: MCF7 breast
[29] = tested on: NCI-H23 lung
[30] = tested on: HCT-15 colon
[31] = tested on: KM12 colon
[32] = tested on: HOP-62 NSCLC
[33] = tested on: OVCAR-3 ovarian
[34] = tested on: RPMI-8226 leukemia
[35] = tested on: CAKI-1 renal
[36] = tested on: CCRF-CEM leukemia
[37] = tested on: NCI-H460 lung
[38] = tested on: SF-295 CNS
[39] = tested on: M14 melanoma
[40] = tested on: A549 NSCLC
[41] = tested on: SF-268 CNS
[42] = tested on: OVCAR-5 ovarian
[43] = tested on: SF-539 CNS
[44] = tested on: K-562 leukemia
[45] = tested on: NCI-H226 lung
[46] = tested on: 786-0 renal
[47] = tested on: SNB-75 CNS
[48] = tested on: A498 renal
[49] = tested on: OVCAR-4 ovarian
[50] = tested on: MDA-MB-231 breast
[51] = tested on: MDA-N
[52] = tested on: UO-31 renal
[53] = tested on: HS 578T breast
[54] = tested on: SN12C renal
[55] = tested on: SR leukemia
[56] = tested on: TK-10 renal
[57] = tested on: T-47D breast
[58] = tested on: EKVX NSCLC
[59] = tested on: HOP-92 NSCLC

Measured: TGI

CC1(C)C2CCC(=O)C1C(OCc1ccccc1)C2 (stereo not given)
50.6 µM: [17]
not listed: [58] | [59]
> 100 µM: all other assays above

c1ccc([P+](c2ccccc2)(c2ccccc2)c2ccc([P+](c3ccccc3)(c3ccccc3)c3ccccc3)c3ccccc23)cc1
not listed: [49] | [58] | [59]
> 100 µM: all other assays above

N#Cc1nc(/C=C/c2nc(C#N)c(N)o2)oc1N
not listed: [7] | [19] | [27] | [33] | [42] | [48]
> 10 µM: all other assays above

COc1ccc(NC=O)c(C(=O)CCNC(C)=O)c1
not listed: [4] | [20] | [25] | [32]
> 100 µM: all other assays above

C[C@@]1(O)C2C3CC4C5C3C1[C@](O)(C42)[C@H]5Br (stereo not given in full)
not listed: [2] | [4] | [34] | [45] | [47]
> 100 µM: all other assays above
